Laboratory results taken from US20070167492A1, “Molluscicidal agents” (priority 2003, published 2007).

Experiments:
Format in all cases: in vivo
[1] = tested on: Winter wheat (Kampa race) seeds; assay: Seed germination test of treated winter wheat seeds (rolled in paper); settings: 3x50 seeds, 6 days at 22° C.
Summary of the method: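 Seeds were disinfected with fludioxonil-containing Beret Gold (2 ml per kg seed) and coated with Sepiret® for formulations unsuitable for coating. Germination of 3×50 seeds rolled in paper was scored after 6 days at continuous 22° C. under a 16 hours light regime.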

[2] = tested on: Deroceras reticulatum (grey field slug); assay: Example 1: pot test, treated winter wheat seed with 5 adult slugs per pot, 14 days
Summary of the method: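 Fludioxonil-disinfected winter wheat seed (Kampa, 40 per pot) sown on quartz sand over potting soil with 5 adult slugs per pot; ±15° C., ±90% RH, 12 h light/12 h dark, 4 replicates. Damaged seeds, plants, dead slugs and fecal pellets counted up to day 14; F-tests and Student-tests.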

[3] = tested on: Deroceras reticulatum (grey field slug); assay: Example 2: pot re-test, treated winter wheat seed with 5 adult slugs per pot, 7 days
From the text: Based on the results of the experiment described in Example 1, a selection was made from the various test numbers of that experiment for re-testing, partly to confirm the conclusions of that experiment and to test the unexpected outcome of some test compounds.
The selection of test numbers (Test No.) used in the present experiment relative to those of the experiment described in Example 1 is shown in Table 7.
The same seeds as described in Example 1 were sown in earthenware pots with an internal diameter of 20 cm and a height of 18 cm, filled with 7 cm of potting soil (Trio BV, Weesp, The Netherlands) and with a top 2 cm of white quartz sand. A total of 40 winter wheat seeds was placed in each pot, in a pattern of concentric circles on top of the quartz sand, the germ of the seed facing upwards. To each pot a total of 5 adult specimens of the test slug Deroceras reticulatum (grey field slug) were added. The pots were incubated at 18-19° C. with a relative humidity of ±95% and light regime of ±18 hours light/6 hours dark, without artificial lighting. The pots were not irrigated overhead. In total, 4 parallel tests were performed for each test.
The number of damaged seeds was, the number of plants present (germinated and not eaten or damaged by the slugs), the number of dead slugs and of the number of fecal pellets were determined after 2, 3 and 7 days following the addition of the slugs.
The data were statistically analysed by using F-tests (α=0.05) and pair-wise Student-tests.

[4] = 2 ml formulated per kg seed, 2 days after sowing
[5] = 2 ml formulated per kg seed, 3 days after sowing
[6] = 2 ml formulated per kg seed, 7 days after sowing
[7] = 2 ml formulated per kg seed, 10 days after sowing
[8] = 2 ml formulated per kg seed, 14 days after sowing
[9] = 4 ml formulated per kg seed, 2 days after sowing
[10] = 4 ml formulated per kg seed, 3 days after sowing
[11] = 4 ml formulated per kg seed, 7 days after sowing
[12] = 4 ml formulated per kg seed, 10 days after sowing
[13] = 4 ml formulated per kg seed, 14 days after sowing
[14] = 8 ml formulated per kg seed, 2 days after sowing
[15] = 8 ml formulated per kg seed, 3 days after sowing
[16] = 8 ml formulated per kg seed, 7 days after sowing
[17] = 8 ml formulated per kg seed, 10 days after sowing
[18] = 8 ml formulated per kg seed, 14 days after sowing
[19] = Example 2, 2 ml formulated per kg seed, 2 days after sowing
[20] = Example 2, 2 ml formulated per kg seed, 3 days after sowing
[21] = Example 2, 2 ml formulated per kg seed, 7 days after sowing
[22] = Example 2, 4 ml formulated per kg seed, 2 days after sowing
[23] = Example 2, 4 ml formulated per kg seed, 3 days after sowing
[24] = Example 2, 4 ml formulated per kg seed, 7 days after sowing
[25] = Example 2, after 2, 3 and 7 days

CNC(=O)Oc1cc(C)c(SC)c(C)c1 [methiocarb, 4-methylthio-3,5-xylyl methylcarbamate]
Percentage germinated ([1]; 2 ml formulated per kg seed): 61% | Percentage germinated ([1]; 4 ml formulated per kg seed): 63% | Percentage germinated ([1]; 8 ml formulated per kg seed): 27% | number of utilizable plants after 14 days ([2]; 2 ml formulated per kg seed): 15.5 | percentage of damaged seeds after 14 days ([2]; 2 ml formulated per kg seed): 44% | Mean number of damaged seeds per pot [2, 4]: 2.0 | Mean number of dead slugs per pot [2, 4]: 0.3 | Mean number fecal pellets per pot [2, 5]: 18 | Mean number of damaged seeds per pot [2, 5]: 5.3 | Mean number of dead slugs per pot [2, 5]: 0.3 | Mean number of plants present per pot [2, 5]: 10.5 | Mean number fecal pellets per pot [2, 6]: 43 | Mean number of damaged seeds per pot [2, 6]: 19.3 | Mean number of dead slugs per pot [2, 6]: 0.3 | Mean number of plants present per pot [2, 6]: 16.5 | Mean number fecal pellets per pot [2, 7]: 47 | Mean number of damaged seeds per pot [2, 7]: 17.0 | Mean number of dead slugs per pot [2, 7]: 0.3 | Mean number of plants present per pot [2, 7]: 19.8 | Mean number fecal pellets per pot [2, 8]: 50 | Mean number of damaged seeds per pot [2, 8]: 17.8 | Mean number of dead slugs per pot [2, 8]: 0.5 | Mean number of plants present per pot [2, 8]: 21.3 | number of utilizable plants after 14 days ([2]; 4 ml formulated per kg seed): 19.8 | percentage of damaged seeds after 14 days ([2]; 4 ml formulated per kg seed): 13% | Mean number of damaged seeds per pot [2, 9]: 1.3 | Mean number of dead slugs per pot [2, 9]: 0 | Mean number fecal pellets per pot [2, 10]: 16 | Mean number of damaged seeds per pot [2, 10]: 3.3 | Mean number of dead slugs per pot [2, 10]: 0 | Mean number of plants present per pot [2, 10]: 7.8 | Mean number fecal pellets per pot [2, 11]: 34 | Mean number of damaged seeds per pot [2, 11]: 10.8 | Mean number of dead slugs per pot [2, 11]: 0.3 | Mean number of plants present per pot [2, 11]: 22.8 | Mean number fecal pellets per pot [2, 12]: 35 | Mean number of damaged seeds per pot [2, 12]: 4.8 | Mean number of dead slugs per pot [2, 12]: 0.3 | Mean number of plants present per pot [2, 12]: 30.3 | Mean number fecal pellets per pot [2, 13]: 36 | Mean number of damaged seeds per pot [2, 13]: 5.0 | Mean number of dead slugs per pot [2, 13]: 1.8 | Mean number of plants present per pot [2, 13]: 29.8 | number of utilizable plants after 14 days ([2]; 8 ml formulated per kg seed): 33.0 | percentage of damaged seeds after 14 days ([2]; 8 ml formulated per kg seed): 8% | Mean number of damaged seeds per pot [2, 14]: 1.8 | Mean number of dead slugs per pot [2, 14]: 0 | Mean number fecal pellets per pot [2, 15]: 6 | Mean number of damaged seeds per pot [2, 15]: 2.5 | Mean number of dead slugs per pot [2, 15]: 0.3 | Mean number of plants present per pot [2, 15]: 4.3 | Mean number fecal pellets per pot [2, 16]: 23 | Mean number of damaged seeds per pot [2, 16]: 4.5 | Mean number of dead slugs per pot [2, 16]: 0.5 | Mean number of plants present per pot [2, 16]: 32.0 | Mean number fecal pellets per pot [2, 17]: 27 | Mean number of damaged seeds per pot [2, 17]: 3.3 | Mean number of dead slugs per pot [2, 17]: 1.3 | Mean number of plants present per pot [2, 17]: 33.8 | Mean number fecal pellets per pot [2, 18]: 27 | Mean number of damaged seeds per pot [2, 18]: 3.3 | Mean number of dead slugs per pot [2, 18]: 1.5 | Mean number of plants present per pot [2, 18]: 34.8 | effect on the slug population ([2]; Example 1): little effect on the slug population | damaged seeds relative to the untreated pots ([2]; Example 1, 2, 4 and 8 ml per kg of seed, from day 3 after sowing): significantly less damaged seeds | plants present relative to the untreated pots ([2]; Example 1, 2, 4 or 8 ml per kg of seed, after 3 (only 2 ml), 7, 10 and 14 days): significantly more plants present | fecal pellets relative to the untreated seed ([2]; Example 1, at each dosage and at each observation): significantly less fecal pellets | protection / slug controlling effect (conclusion) ([2]; Example 1, winter wheat seed treatment, dosages tested): good protection to both seeds and plants | dead slugs observed during the course of the experiment ([3]; Example 2): More dead slugs | result of seed treatment against slugs (conclusion) ([3]; Example 2): fairly food protection of the seeds against slugs | percentage of damaged seeds after 7 days ([3]; Example 2, 2 ml formulated per kg seed): 14% | Mean number of damaged seeds per pot [3, 19]: 2.5 | Mean number of dead slugs per pot [3, 19]: 0.3 | Mean number of damaged seeds per pot [3, 20]: 4.8 | Mean number of dead slugs per pot [3, 20]: 0.5 | Mean number of damaged seeds per pot [3, 21]: 5.5 | Mean number of dead slugs per pot [3, 21]: 2.3 | percentage of damaged seeds after 7 days ([3]; Example 2, 4 ml formulated per kg seed): 9% | Mean number of damaged seeds per pot [3, 22]: 1.8 | Mean number of dead slugs per pot [3, 22]: 0 | Mean number of damaged seeds per pot [3, 23]: 2.0 | Mean number of dead slugs per pot [3, 23]: 1.8 | Mean number of damaged seeds per pot [3, 24]: 3.5 | Mean number of dead slugs per pot [3, 24]: 3.3 | number of fecal pellets per pot relative to the untreated control [3, 25]: significant reduction in the number of fecal pellets | plants present relative to the untreated seed [3, 25]: significantly more plants present | number of damaged seeds relative to the untreated seed ([3]; Example 2, two days after the start): significant reduction in the number of damaged seeds | Mean number of fecal pellets per pot ([3]; dosage 2 ml, 2 days): 1 | Mean number of plants present per pot ([3]; dosage 2 ml, 2 days): 9.0 | Mean number of fecal pellets per pot ([3]; dosage 2 ml, 3 days): 9 | Mean number of plants present per pot ([3]; dosage 2 ml, 3 days): 22.5 | Mean number of fecal pellets per pot ([3]; dosage 2 ml, 7 days): 20 | Mean number of plants present per pot ([3]; dosage 2 ml, 7 days): 34.0 | number of utilizable plants after 7 days ([3]; dosage 2 ml, 7 days): 26.8 | Mean number of fecal pellets per pot ([3]; dosage 4 ml, 2 days): 2 | Mean number of plants present per pot ([3]; dosage 4 ml, 2 days): 28.3 | Mean number of fecal pellets per pot ([3]; dosage 4 ml, 3 days): 7 | Mean number of plants present per pot ([3]; dosage 4 ml, 3 days): 33.3 | Mean number of fecal pellets per pot ([3]; dosage 4 ml, 7 days): 11 | Mean number of plants present per pot ([3]; dosage 4 ml, 7 days): 34.5 | number of utilizable plants after 7 days ([3]; dosage 4 ml, 7 days): 32.5
